From patent publication EP4389749A1, “SUBSTITUTED 3,7-DIHYDRO-1H-PURINE-2,6-DIONES AND USE THEREOF” (invIOs GmbH, priority 2022, dated 2024)

Columns and labels:
CD4+ T-cells = assay: Immunostimulation assay with anti-CD3/28 stimulated T-cells, CD69 expression by flow cytometry; type: cell-based, human; settings: T-cell; purified human CD4+ and CD8+ T-cells, 1 µg/ml anti-CD3, 1 µg/ml anti-CD28, 16 hours, surface FACS; read-out: EC50 CD4+
How it was run: (§1)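 Human CD4+/CD8+ T-cells purified from buffy-coat PBMCs were stimulated with 1 µg/ml anti-CD3 and 1 µg/ml anti-CD28 plus compound (0.001–30 µM) for 16 h at 37 °C. CD69 measured by flow cytometry; DMSO set minimal, CD3/28 Dynabeads maximal activation; EC50 by variable-slope fit.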

CD8+ T-cells = assay: as above; type: cell-based, human; settings: T-cell; purified human CD4+ and CD8+ T-cells, 1 µg/ml anti-CD3, 1 µg/ml anti-CD28, 16 hours, surface FACS; read-out: EC50 CD8+
How it was run: as §1

## Cn1c(-c2ccc(Oc3ccc(Cl)cc3)c(Cl)c2)nc2c1c(=O)[nH]c(=O)n2CC(O)CF (centres unmarked) [Compound 147, 8-(3-chloro-4-(4-chlorophenoxy)phenyl)-3-(3-fluoro-2-hydroxypropyl)-7-methyl-3,7-dihydro-1H-purine-2,6-dione]
CD4+ T-cells
  EC50: < 0.1 µM
CD8+ T-cells
  EC50: < 0.1 µM

## Cn1c(-c2ccc(Oc3ccc(OC(F)F)cc3)c(Cl)c2)nc2c1c(=O)[nH]c(=O)n2CC(O)CF (centres unmarked) [Compound 148, 8-(3-chloro-4-(4-(difluoromethoxy)phenoxy)phenyl)-3-(3-fluoro-2-hydroxypropyl)-7-methyl-3,7-dihydro-1H-purine-2,6-dione]
CD4+ T-cells
  EC50: 0.1 to 0.5 µM
CD8+ T-cells
  EC50: 0.1 to 0.5 µM

## Cn1c(-c2ccc(Oc3ccc(OC(F)(F)F)cc3)c(F)c2)nc2c1c(=O)[nH]c(=O)n2CC(O)CF (centres unmarked) [Compound 149, 3-(3-fluoro-2-hydroxypropyl)-8-(3-fluoro-4-(4-(trifluoromethoxy)phenoxy)phenyl)-7-methyl-3,7-dihydro-1H-purine-2,6-dione]
CD4+ T-cells
  EC50: 0.1 to 0.5 µM
CD8+ T-cells
  EC50: 0.1 to 0.5 µM

## CC(CO)Cn1c(=O)[nH]c(=O)c2c1nc(-c1ccc(Oc3ccc(Cl)cc3)c(Cl)c1)n2C (centres unmarked) [Compound 150, 8-(3-chloro-4-(4-chlorophenoxy)phenyl)-3-(3-hydroxy-2-methylpropyl)-7-methyl-3,7-dihydro-1H-purine-2,6-dione]
CD4+ T-cells
  EC50: 0.5 to 1 µM
CD8+ T-cells
  EC50: 0.1 to 0.5 µM

## CC(CO)Cn1c(=O)[nH]c(=O)c2c1nc(-c1ccc(Oc3ccc(OC(F)F)cc3)c(Cl)c1)n2C (centres unmarked) [Compound 151, 8-(3-chloro-4-(4-(difluoromethoxy)phenoxy)phenyl)-3-(3-hydroxy-2-methylpropyl)-7-methyl-3,7-dihydro-1H-purine-2,6-dione]
CD4+ T-cells
  EC50: 0.1 to 0.5 µM
CD8+ T-cells
  EC50: 0.1 to 0.5 µM

## CC(CO)Cn1c(=O)[nH]c(=O)c2c1nc(-c1ccc(Oc3ccc(OC(F)(F)F)cc3)c(F)c1)n2C (centres unmarked) [Compound 152, 8-(3-fluoro-4-(4-(trifluoromethoxy)phenoxy)phenyl)-3-(3-hydroxy-2-methylpropyl)-7-methyl-3,7-dihydro-1H-purine-2,6-dione]
CD4+ T-cells
  EC50: 0.1 to 0.5 µM
CD8+ T-cells
  EC50: 0.1 to 0.5 µM

## Cn1c(-c2ccc(Oc3ccc(Cl)cc3)c(Cl)c2)nc2c1c(=O)[nH]c(=O)n2CC(O)C(F)(F)F (centres unmarked) [Compound 153, 8-(3-chloro-4-(4-chlorophenoxy)phenyl)-7-methyl-3-(3,3,3-trifluoro-2-hydroxypropyl)-3,7-dihydro-1H-purine-2,6-dione]
CD4+ T-cells
  EC50: 0.1 to 0.5 µM
CD8+ T-cells
  EC50: 0.1 to 0.5 µM

## CC(O)Cn1c(=O)[nH]c(=O)c2c1nc(-c1ccc(Oc3ccc(OC(F)(F)F)cc3)c(C(F)(F)F)c1)n2C (centres unmarked) [Compound 155, 3-(2-hydroxypropyl)-7-methyl-8-(4-(4-(trifluoromethoxy)phenoxy)-3-(trifluoromethyl)phenyl)-3,7-dihydro-1H-purine-2,6-dione]
CD4+ T-cells
  EC50: 1 to 5 µM
CD8+ T-cells
  EC50: 1 to 5 µM

## CC(O)Cn1c(=O)[nH]c(=O)c2c1nc(-c1ccc(Oc3ccc(OC(F)(F)F)cc3)c(OC(F)(F)F)c1)n2C (centres unmarked) [Compound 156, 3-(2-hydroxypropyl)-7-methyl-8-(3-(trifluoromethoxy)-4-(4-(trifluoromethoxy)phenoxy)phenyl)-3,7-dihydro-1H-purine-2,6-dione]
CD4+ T-cells
  EC50: 0.1 to 0.5 µM
CD8+ T-cells
  EC50: 0.1 to 0.5 µM

## Cn1c(-c2ccc(Oc3ccc(OC(F)(F)F)cc3F)cc2)nc2c1c(=O)[nH]c(=O)n2CC(O)C(F)(F)F (centres unmarked) [Compound 161, 8-(4-(2-fluoro-4-(trifluoromethoxy)phenoxy)phenyl)-7-methyl-3-(3,3,3-trifluoro-2-hydroxypropyl)-3,7-dihydro-1H-purine-2,6-dione]
CD4+ T-cells
  EC50: 0.1 to 0.5 µM
CD8+ T-cells
  EC50: 0.1 to 0.5 µM

## Cn1c(-c2ccc(Oc3ccc(OC(F)F)cc3)c(Cl)c2)nc2c1c(=O)[nH]c(=O)n2CC(O)C(F)(F)F (centres unmarked) [Compound 162, 8-(3-chloro-4-(4-(difluoromethoxy)phenoxy)phenyl)-7-methyl-3-(3,3,3-trifluoro-2-hydroxypropyl)-3,7-dihydro-1H-purine-2,6-dione]
CD4+ T-cells
  EC50: 0.5 to 1 µM
CD8+ T-cells
  EC50: > 5 µM

## Cn1c(-c2ccc(Oc3ccc(OC(F)(F)F)cc3F)c(Cl)c2)nc2c1c(=O)[nH]c(=O)n2CC(O)C(F)(F)F (centres unmarked) [Compound 163, 8-(3-chloro-4-(2-fluoro-4-(trifluoromethoxy)phenoxy)phenyl)-7-methyl-3-(3,3,3-trifluoro-2-hydroxypropyl)-3,7-dihydro-1H-purine-2,6-dione]
CD4+ T-cells
  EC50: 0.1 to 0.5 µM
CD8+ T-cells
  EC50: 0.1 to 0.5 µM

## Cn1c(-c2ccc(Oc3ccc(Cl)cc3)cc2)nc2c1c(=O)[nH]c(=O)n2CC(O)C(F)(F)F (centres unmarked) [Compound 164, 8-(4-(4-chlorophenoxy)phenyl)-7-methyl-3-(3,3,3-trifluoro-2-hydroxypropyl)-3,7-dihydro-1H-purine-2,6-dione]
CD4+ T-cells
  EC50: 0.1 to 0.5 µM
CD8+ T-cells
  EC50: 0.1 to 0.5 µM

## Cn1c(-c2ccc(Oc3ccc(OC(F)F)cc3)cc2)nc2c1c(=O)[nH]c(=O)n2CC(O)C(F)(F)F (centres unmarked) [Compound 165, 8-(4-(4-(difluoromethoxy)phenoxy)phenyl)-7-methyl-3-(3,3,3-trifluoro-2-hydroxypropyl)-3,7-dihydro-1H-purine-2,6-dione]
CD4+ T-cells
  EC50: 1 to 5 µM
CD8+ T-cells
  EC50: 1 to 5 µM

## Cn1c(-c2ccc(Oc3ccc(OC(F)(F)F)c(Cl)c3)c(F)c2)nc2c1c(=O)[nH]c(=O)n2CC(O)C(F)(F)F (centres unmarked) [Compound 166, 8-(4-(3-chloro-4-(trifluoromethoxy)phenoxy)-3-fluorophenyl)-7-methyl-3-(3,3,3-trifluoro-2-hydroxypropyl)-3,7-dihydro-1H-purine-2,6-dione]
CD4+ T-cells
  EC50: 0.1 to 0.5 µM
CD8+ T-cells
  EC50: 0.1 to 0.5 µM

## Cn1c(-c2ccc(Oc3ccc(OC(F)(F)F)cc3)c(F)c2)nc2c1c(=O)[nH]c(=O)n2CC(O)C(F)(F)F (centres unmarked) [Compound 167, 8-(3-fluoro-4-(4-(trifluoromethoxy)phenoxy)phenyl)-7-methyl-3-(3,3,3-trifluoro-2-hydroxypropyl)-3,7-dihydro-1H-purine-2,6-dione]
CD4+ T-cells
  EC50: 0.1 to 0.5 µM
CD8+ T-cells
  EC50: 0.1 to 0.5 µM

## CC(O)Cn1c(=O)[nH]c(=O)c2c1nc(-c1ccc(Oc3ccc(S(C)(=O)=O)cc3)cc1)n2C (centres unmarked) [Compound 176, 3-(2-hydroxypropyl)-7-methyl-8-(4-(4-(methylsulfonyl)phenoxy)phenyl)-3,7-dihydro-1H-purine-2,6-dione]
CD4+ T-cells
  EC50: 1 to 5 µM
CD8+ T-cells
  EC50: 0.5 to 1 µM

## CC(O)Cn1c(=O)[nH]c(=O)c2c1nc(-c1ccc(Oc3ccc(OC(F)F)cc3)c(Cl)c1)n2C (centres unmarked) [Compound 178, 8-(3-chloro-4-(4-(difluoromethoxy)phenoxy)phenyl)-3-(2-hydroxypropyl)-7-methyl-3,7-dihydro-1H-purine-2,6-dione]
CD4+ T-cells
  EC50: 0.5 to 1 µM
CD8+ T-cells
  EC50: 0.5 to 1 µM

## CC(O)Cn1c(=O)[nH]c(=O)c2c1nc(-c1ccc(Oc3ccc(OC(F)(F)F)cc3)c(Cl)c1)n2C (centres unmarked) [Compound 179, 8-(3-chloro-4-(4-(trifluoromethoxy)phenoxy)phenyl)-3-(2-hydroxypropyl)-7-methyl-3,7-dihydro-1H-purine-2,6-dione]
CD4+ T-cells
  EC50: > 5 µM
CD8+ T-cells
  EC50: 0.5 to 1 µM

## CC(O)Cn1c(=O)[nH]c(=O)c2c1nc(-c1ccc(Oc3ccc(Cl)cc3)c(Cl)c1)n2C (centres unmarked) [Compound 180, 8-(3-chloro-4-(4-chlorophenoxy)phenyl)-3-(2-hydroxypropyl)-7-methyl-3,7-dihydro-1H-purine-2,6-dione]
CD4+ T-cells
  EC50: 1 to 5 µM
CD8+ T-cells
  EC50: 0.5 to 1 µM

## COc1cccc(Oc2ccc(-c3nc4c(c(=O)[nH]c(=O)n4CC(C)O)n3C)cc2)c1 (centres unmarked) [Compound 182, 3-(2-hydroxypropyl)-8-(4-(3-methoxyphenoxy)phenyl)-7-methyl-3,7-dihydro-1H-purine-2,6-dione]
CD4+ T-cells
  EC50: 1 to 5 µM
CD8+ T-cells
  EC50: 1 to 5 µM

## CC(O)Cn1c(=O)[nH]c(=O)c2c1nc(-c1ccc(Oc3cccc(Cl)c3)cc1)n2C (centres unmarked) [Compound 184, 8-(4-(3-chlorophenoxy)phenyl)-3-(2-hydroxypropyl)-7-methyl-3,7-dihydro-1H-purine-2,6-dione]
CD4+ T-cells
  EC50: 1 to 5 µM
CD8+ T-cells
  EC50: 1 to 5 µM

## CC(O)Cn1c(=O)[nH]c(=O)c2c1nc(-c1ccc(Oc3ccc4ccccc4c3)cc1)n2C (centres unmarked) [Compound 186, 3-(2-hydroxypropyl)-7-methyl-8-(4-(naphthalen-2-yloxy)phenyl)-3,7-dihydro-1H-purine-2,6-dione]
CD4+ T-cells
  EC50: 0.1 to 0.5 µM
CD8+ T-cells
  EC50: 0.1 to 0.5 µM

## CC(O)Cn1c(=O)[nH]c(=O)c2c1nc(-c1ccc(Oc3cccc(C#N)c3)cc1)n2C (centres unmarked) [Compound 187, 3-(4-(3-(2-hydroxypropyl)-7-methyl-2,6-dioxo-2,3,6,7-tetrahydro-1H-purin-8-yl)phenoxy)benzonitrile]
CD4+ T-cells
  EC50: 1 to 5 µM
CD8+ T-cells
  EC50: 1 to 5 µM

## CC(O)Cn1c(=O)[nH]c(=O)c2c1nc(-c1ccc(Oc3ccc(OC(F)(F)F)cc3)c(F)c1)n2C (centres unmarked) [Compound 188, 8-(3-fluoro-4-(4-(trifluoromethoxy)phenoxy)phenyl)-3-(2-hydroxypropyl)-7-methyl-3,7-dihydro-1H-purine-2,6-dione]
CD4+ T-cells
  EC50: 0.1 to 0.5 µM
CD8+ T-cells
  EC50: 1 to 5 µM

## CC(O)Cn1c(=O)[nH]c(=O)c2c1nc(-c1ccc(Oc3ccccc3OC(F)(F)F)cc1)n2C (centres unmarked) [Compound 190, 3-(2-hydroxypropyl)-7-methyl-8-(4-(2-(trifluoromethoxy)phenoxy)phenyl)-3,7-dihydro-1H-purine-2,6-dione]
CD4+ T-cells
  EC50: > 5 µM
CD8+ T-cells
  EC50: > 5 µM

## CC(O)Cn1c(=O)[nH]c(=O)c2c1nc(-c1ccc(Oc3cccc(OC(F)(F)F)c3)cc1)n2C (centres unmarked) [Compound 191, 3-(2-hydroxypropyl)-7-methyl-8-(4-(3-(trifluoromethoxy)phenoxy)phenyl)-3,7-dihydro-1H-purine-2,6-dione]
CD4+ T-cells
  EC50: 0.5 to 1 µM
CD8+ T-cells
  EC50: 0.5 to 1 µM

## CC(O)Cn1c(=O)[nH]c(=O)c2c1nc(-c1ccc(Oc3ccc(OC(F)(F)F)cc3Cl)cc1)n2C (centres unmarked) [Compound 192, 8-(4-(2-chloro-4-(trifluoromethoxy)phenoxy)phenyl)-3-(2-hydroxypropyl)-7-methyl-3,7-dihydro-1H-purine-2,6-dione]
CD4+ T-cells
  EC50: 1 to 5 µM
CD8+ T-cells
  EC50: 1 to 5 µM
